From patent US9458181B2, “Cathepsin cysteine protease inhibitors” (Merck Sharp & Dohme Corp., priority 2013, dated 2016)

Columns and labels:
human cathepsin K = human cathepsin K (UniProt P43236); assay: Cathepsin K Assay (hrbCat K); assay type: biochemical; conditions: human cathepsin K 0.4 nM, Z-Leu-Arg-AMC 8 μM, pH 5.5, 15 min preincubation; read-out: hrbCat K IP
How it was run: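 Human cathepsin K (0.4 nM) in pH 5.5 MES buffer with EDTA, DTT and 10% DMSO was preincubated 15 min at room temperature with compound from a ⅓ dilution series (500-0.025 μM DMSO stocks). Z-Leu-Arg-AMC (8 μM) was then added, and AMC release was followed fluorometrically (Ex 360/Em 460 nm) for 30 min; inhibition was fitted to a dose-response model.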

human cathepsin F = biological target: T1, human cathepsin F (Homo sapiens, UniProt Q9UBX1); assay: Cathepsin F assay (hCat F); assay type: biochemical; conditions: human cathepsin F 10 nM, Z-Phe-Arg-AMC 8 μM, pH 5.5, 15 min preincubation; read-out: hCat F IP
T1 sequence (Q9UBX1 271-484): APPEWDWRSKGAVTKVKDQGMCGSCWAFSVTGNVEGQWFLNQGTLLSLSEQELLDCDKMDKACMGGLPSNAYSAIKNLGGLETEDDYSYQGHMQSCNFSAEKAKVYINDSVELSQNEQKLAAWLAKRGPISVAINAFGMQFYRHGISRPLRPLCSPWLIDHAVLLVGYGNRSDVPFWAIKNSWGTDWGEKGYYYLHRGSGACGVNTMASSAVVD
How it was run: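 Fluorogenic read-out: cleavage of Z-Phe-Arg-AMC (8 μM in added buffer) was followed at Ex 360/Em 460 nm for 20 min, with dose-response fitting of percent inhibition. Before substrate addition, 10 nM human enzyme was incubated 15 min at room temperature with compounds (DMSO stocks 500–0.025 μM) in pH 5.5 MES/EDTA/DTT buffer containing 10% DMSO.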

Compound | IC50 (human cathepsin K) | IC50 (human cathepsin F)
N#CC1(NC(=O)[C@@H]2CCCC[C@H]2c2oc(C3C4CC3C4)nc2-c2ccc(N3CCS(=O)(=O)CC3)cc2)CC1 (stereo partly drawn) [Example 98, (1R,2R)-2-(2-(bicyclo[1.1.1]pentan-2-yl)-4-(4-(1,1-dioxidothiomorpholino)phenyl)oxazol-5-yl)-N-(1-cyanocyclopropyl) cyclohexanecarboxamide] | 0.00143 µM | 2.31 µM
N#CC1(NC(=O)[C@@H]2CCCC[C@H]2c2oc(C(F)(F)C(F)(F)F)nc2-c2ccc(N3CCS(=O)(=O)CC3)cc2)CC1 [Example 3, (1R,2R)—N-(1-Cyanocyclopropyl)-2-(4-(4-(1,1-dioxidothiomorpholino)phenyl)-2-(perfluoroethyl)oxazol-5-yl)cyclohexanecarboxamide] | 0.00102 µM | 0.666 µM
Cc1nc(-c2ccc(N3CCS(=O)(=O)CC3)cc2)c([C@@H]2CCC(F)(F)C[C@H]2C(=O)NC2(C#N)CC2)o1 [Example 18, (1R,2R)-N-(1-cyanocyclopropyl)-2-(4-(4-(1,1-dioxidothiomorpholino)phenyl)-2-methyloxazol-5-yl)-5,5-difluorocyclohexane-carboxamide] | 0.00048 µM | 0.178 µM
N#CC1(NC(=O)[C@@H]2CCCC[C@H]2c2oc(-c3cccc(C(F)(F)F)c3)nc2-c2ccc(N3CCS(=O)(=O)CC3)cc2)CC1 [Example 66, (1R,2R)-N-(1-cyanocyclopropyl)-2-(4-(4-(1,1-dioxidothiomorpholino)phenyl)-2-(3-(trifluoromethyl)phenyl)oxazol-5-yl)cyclohexanecarboxamide] | 0.00121 µM | 0.454 µM
N#CC1(NC(=O)[C@@H]2CCCC[C@H]2c2oc(-c3ccc(F)c(Cl)c3)nc2-c2ccc(N3CCS(=O)(=O)CC3)cc2)CC1 [Example 36, (1R,2R)-2-(2-(3-chloro-4-fluorophenyl)-4-(4-(1,1-dioxidothiomorpholino)phenyl)oxazol-5-yl)-N-(1-cyanocyclopropyl) cyclohexanecarboxamide] | 0.00094 µM | 0.382 µM
C[C@@H](C#N)NC(=O)[C@@H]1CC(F)(F)CC[C@H]1c1oc(C(F)(F)C(F)(F)F)nc1-c1ccc(C(=O)N2CCOCC2)cc1 [Example 137, (1R,2R)-N-((S)-1-cyanoethyl)-5,5-difluoro-2-(4-(4-(morpholine-4-carbonyl)phenyl)-2-(perfluoroethyl)oxazol-5-yl)cyclohexanecarboxamide] | 0.00039 µM | 0.295 µM
N#CC1(NC(=O)[C@@H]2CCCC[C@H]2c2oc(-c3cncc(F)c3)nc2-c2ccc(N3CCS(=O)(=O)CC3)cc2)CC1 [Example 33, (1R,2R)-N-(1-cyanocyclopropyl)-2-(4-(4-(1,1-dioxidothiomorpholino)phenyl)-2-(5-fluoropyridin-3-yl)oxazol-5-yl)cyclohexanecarboxamide] | 0.00199 µM | 1.32 µM
Cc1ncc(-c2nc(-c3ccc(N4CCS(=O)(=O)CC4)cc3)c([C@@H]3CCCC[C@H]3C(=O)NC3(C#N)CC3)o2)s1 [Example 73, (1R,2R)-N-(1-cyanocyclopropyl)-2-(4-(4-(1,1-dioxidothiomorpholino)phenyl)-2-(2-methylthiazol-5-yl)oxazol-5-yl)cyclohexanecarboxamide] | 0.00142 µM | 1.49 µM
N#CC1(NC(=O)[C@@H]2CCCC[C@H]2c2sc(C(F)(F)F)nc2-c2ccc(N3CCS(=O)(=O)CC3)cc2)CC1 [Example 60, (1R,2R)-N-(1-cyanocyclopropyl)-2-(4-(4-(1,1-dioxidothiomorpholino)phenyl)-2-(trifluoromethyl)thiazol-5-yl)cyclohexanecarboxamide] | 0.00437 µM | 3.29 µM
N#CC1(NC(=O)[C@@H]2CCCC[C@H]2c2oc(-c3ccc(OC(F)F)cc3)nc2-c2ccc(N3CCS(=O)(=O)CC3)cc2)CC1 [Example 64, (1R,2R)-N-(1-cyanocyclopropyl)-2-(2-(4-(difluoromethoxy)phenyl)-4-(4-(1,1-dioxidothiomorpholino)phenyl)oxazol-5-yl)cyclohexanecarboxamide] | 0.00104 µM | 0.573 µM
